“Also recorded” adds a separate entry of the source.
Experiments:
[1] = test system: human malignant U373 glioma cells; assay: Cell viability / cell death (MTT test, propidium iodide, annexin-V-Alexa 568 binding, FACS scatter morphology); settings: 260 μM in PBS, 20 min, substance alone
Experimental: Human malignant U373-glioma cells were grown to 70% confluency in RPMI-1640 Ready Mix Medium containing L-Glutamine and 10% FBS-Gold (PAA laboratories, Pasching, Austria) at 37° C., 5% CO2 (vol/vol), in 4-well-plates (NUNC, Wiesbaden, Germany) with about 300,000 cells pro well. […] After this, the cells were washed three times with buffer and then incubated with Ready Mix Medium again. Cell viability was then assessed by the addition of methyl-thiazoyl-tetrazolium (MTT) salt (Sigma-Aldrich, Germany) at a concentration of 15 mg/ml. After 20 minutes, the production of formazan was investigated. When blue formazan granules were detected, propidium iodine (PI) was added to the medium (1 μM PI; Molecular Probes, Eugene, Oreg., USA) to detect cells with damaged cell membranes. […] Pictures were taken with a 3-CCD color video camera (MC3254P, Sony, Japan) and the Axiovision Software (Carl Zeiss, Jena, Germany). The intensity of cell fluorescence was recorded at the exposure time necessary for the production of the fluorescence images.
After imaging, Accutase™ (PAA laboratories, Pasching, Austria) was added to the wells to achieve detachment of the cells for further FACS analysis. Fluorescence was measured in a Becton Dickinson FACSCalibur. A total of 20,000 events per sample were analyzed. The investigations were performed in triplicate.
A sample of cells from each Eppendorf tube was subjected to the MTT test (described under 1.4) to determine microscopically whether the cells were viable. In vitro CT of the cell pellets was performed with a Somatom Sensation 16 (Siemens) which is used for routine clinical investigations.
Cells were incubated for 20 minutes with each of the conjugates dissolved in 0.1% DMSO/PBS at 260 μm. The cells were also incubated with TIBA and both of the non-TIBA-containing conjugates (3 and 4) separately in 0.1% DMSO/OBS at 260 μm. Both TIBA and the conjugates were dissolved in 0.1% DMSO/PBS at 260 μm for incubation due to the insolubility of TIBA (but not the conjugates) in pure PBS. As controls, the cells were incubated with PBS alone, 0.1% DMSO/PBS alone, and TIBA alone (260 μm in 0.1% DMSO/PBS).
The detection of phosphatidyl serine in the outer membrane leaflet of apoptotic cells was performed with the Annexin-V-Alexa™-568-reagent according to manufacturer's protocol (Roche Molecular Biochemicals, Indianapolis, USA). The confocal laser-scanning microscopy was performed on an inverted LSM 510 laser-scanning microscope (Carl Zeiss, Jena, Germany) (objectives: LD Achroplan 40×0.6, Plan Neofluar 20×0.50, 40×0.75). For fluorescence excitation, the 488 nm line of an argon-ion laser and the […] line of a helium-neon laser with appropriate beam splitters and barrier filters were used for FITC and Alexa respectively. Superimposed images of FITC- and Alexa-stained samples were created by overlaying coincident views. All measurements were performed on living, non-fixed cells.
Human malignant LN18 and U373 glioma cells were cultivated in four-well plates (NUNC, Wiesbaden, Germany) (about 300,000 cells per well) as described under 1.5. […] The cells were also coincubated either with CIBA, FIBA or TBPI as well as the NLS-FITC conjugate 3 (each 260 μM). As a control cells were used which were only incubated either with CIBA, FIBA or TBPI (260 μM in PBS) alone. After the incubation the cells were washed three times with PBS and in the following again incubated in Ready Mix Medium. The FITC-labelled conjugates and the Alexa-Annexin for the detection of phosphatidylserine as a signal of the cell death were localized with the confocal laser microscopy (CLSM) as in 1.6.1. All measurements were performed on living cells.

[2] = test system: human malignant LN18 glioma cells; assay: Cell viability / cell death (annexin-V-Alexa 568 binding, propidium iodide, FACS scatter morphology); format: cell-based; settings: for influence on the cell viability: free compound alone, each 250 μM (FIG. 15)
Experimental: All measurements were performed on living, non-fixed cells. […] All measurements were performed on living cells. […] All measurements were performed on living cells in triplicates. […] All measurements were performed on living cells.

[3] = test system: human malignant LN18 glioma cells; assay: Uptake/staining of cells by FITC-labelled conjugates (CLSM, FACS, semi-thin sections); format: cell-based; settings: for staining rate / number of stained cells: free compound co-incubated with conjugate 3 (260 μM); for cells strongly stained by FITC, FACS histogram: free unbound compound incubated in combination with conjugate 3 (260 μM)
Experimental: (§1) The human malignant U373 and LN18 glioma cells were cultivated in 75 cm^2 culture flasks (Corning Costar) (70% confluency) under the conditions as described under 1.4, detached from the flask bottom with Accutase™ (PAA Laboratories) and in the following distributed on Eppendorf tubes (Eppendorf, Hamburg, Germany) (6×10^6 per tube). The cells in the first tube serve as a control (only PBS buffer only). The cells in the other ten tubes were each incubated with benzoic acid (BA), monoiodobenzoic acid (MIBA) or diiodobenzoic acid (DIBA) alone (260 μM), conjugate 3 alone (260 μM), conjugate 3 plus either BA, MIBA or DIBA (260 μM), respectively, and the conjugates 9, 10, and 11 alone. (260 μM).
After an incubation of 20 minutes at 37° C./5% CO2 the cells were washed three times with PBS buffer and centrifuged at 800 rpm (rounds per minute) for 5 minutes. The fluorescence was measured in Becton Dickinson FACSCalibur as described under 1.4. The computer tomography was performed as described under 1.5.1. The examinations were repeated two times. […]
(§2) The FACS analysis was performed as described under 1.4. The assay was repeated two times.
(§3) For the CT and FACS examinations human LN18 and U373 glioma cells were cultivated in 75 cm^2 culture flasks (70% confluency) (conditions as described under section 1). Accutase™ (PAA Laboratories) was added to detach the cell from the culture bottom. The cells were collected and then distributed on Eppendorf-tubes (6×10^6 cells per tube). […] The next three tubes were used for the coincubation of the cells either with trichlorobenzoic acid (TCBA), trifluorobenzoic acid (TFBA) or tribromophenyl Isocyanat (TBPI) and the NLS-FITC-conjugate 3 (260 μM). As control cells were used which were only either incubated with CIBA, FIBA, TBPI (in each case 260 μM in PBS) or with PBS-buffer (native control) alone. […] The computer tomography and FACS analysis of the cell centrifuges were performed as described in 1.5.1 or 1.4, respectively for three times.
All measurements were performed on living cells.
All measurements were performed on living cells in triplicates.
A part of the cells which were stained for the FACS analysis, was fixed by paraformaldehyl with 2% Agar, dehydrogenized in ethanol, embedded in Lowicryl K4M (Polysciences, Eppelheim, Germany) and according to the information of the manufacturer UV-polymerised at room temperature. Semi-thin sections (about 0.4 μm) were cut and evaluated by means of fluorescence microscopy.

[4] = test system: human vascular endothelial cells; settings: traditional contrast media; cited from earlier work
[5] = test system: human malignant U373 glioma cells; assay: Uptake/staining of cells by FITC-labelled conjugates (fluorescence microscopy, CLSM, FACS, semi-thin sections); format: cell-based; settings: free unbound compound incubated in combination with conjugate 3 (260 μM)
Experimental: Fluorescence was measured in a Becton Dickinson FACSCalibur. […] The investigations were performed in triplicate.
For CT and FACS human U373 glioma cells were grown under the same conditions in 75 cm^2 culture flasks (Corning Costar, Bodenheim, Germany) (70% confluency). Accutase™ (PAA laboratories, Pasching, Austria) was added to achieve detachment of the cells which were harvested and subsequently aliquoted into Eppendorf tubes (6×10^6 cells per tube). As in the investigations performed by fluorescence microscopy, the cells in the first tube served as a control (PBS only). The cells in the other tubes were incubated with 260 μM Ultravist, 260 μM TIBA in PBS and 26 μM, 260 μM and 2.6 mM conjugates 1-4 in PBS. After a 20 minute incubation period at 37° C. in an atmosphere of 5% CO2, the cells were washed three times in PBS and centrifuged at 800 rpm for 5 minutes.
The FACS analysis was performed as described under 1.4.
as §1
After an incubation of 20 minutes at 37° C./5% CO2 the cells were washed three times with PBS buffer and centrifuged at 800 rpm (rounds per minute) for 5 minutes. The fluorescence was measured in Becton Dickinson FACSCalibur as described under 1.4. The computer tomography was performed as described under 1.5.1. The examinations were repeated two times.
For the CT and FACS examinations human LN-18 and U373 glioma cells were cultivated in 75 cm^2 culture flasks (Corning Costar) (70% confluency) (conditions as described under 1.4). Accutase™ (PAA Laboratories) was added to detach the cells from the bottom of the culture flasks. The cells were collected and then distributed on Eppendorf tubes (6×10^6 cells per tube). The cells in the first two tubes serve as a control (in each case only PBS, LN18 and U373 glioma cells, native). The cells in the other tubes (in each case LN18 and U373 glioma cells) were incubated with a 260 μM or 2.6 mM solution of the conjugate 12 for 20 minutes at 37° C. and 5% CO2 and in the following washed for three times with PBS buffer and centrifuged for 5 minutes with 800 rpm (rounds per minute). For a small amount of the cells it was tested by the MMT test (see 1.4) how many of the cells were still viable. The computer tomography of the cell centrifuges was performed with the Somatom Sensation 16 (Siemens).
as §2
as §3, with “times. […]” for “times.”

[6] = 260 μM, 20 min, substance alone
[7] = free compound co-incubated with conjugate 3 (260 μM)

| Compound | cytotoxic effects / signs of cell death [1] | cell death / vitality (annexin-V-Alexa 568, propidium iodide) [2, 6] | cell death / vitality (annexin-V-Alexa 568, propidium iodide) [2, 7] | staining rate / number of stained cells [3] | influence on the cell viability [2] | further results |
| --- | --- | --- | --- | --- | --- | --- |
| O=C(O)c1ccccc1 [BA, benzoic acid, reference compound] | did not result in cytotoxic effects | did not result in cytotoxic effects | did not result to a considerable change | did not result to a considerable change | – | – |
| O=C(O)c1cc(I)ccc1I [DIBA, 2,5-diiodobenzoic acid, reference compound] | did not result in cytotoxic effects | did not result in cytotoxic effects | did not result in a binding of annexin-V-Alexa™ 568; also recorded: did not result to a considerable change | did not result in a higher staining rate; also recorded: did not result to a considerable change | – | – |
| O=C(O)c1ccc(I)cc1 [MIBA, 4-monoiodobenzoic acid, reference compound] | did not result in cytotoxic effects | did not result in cytotoxic effects | did not result in a binding of annexin-V-Alexa™ 568; also recorded: did not result to a considerable change | did not result in a higher staining rate; also recorded: did not result to a considerable change | – | – |
| CC(=O)Nc1c(I)c(NC(C)=O)c(I)c(C(=O)O)c1I [diatrizoate] | – | – | – | – | – | concentration at which apoptosis is induced [4]: 250 mg iodine per millilitre |
| CN(C(=O)CC(=O)N(C)c1c(I)c(C(=O)NC(CO)C(O)CO)c(I)c(C(=O)NC(CO)C(O)CO)c1I)c1c(I)c(C(=O)NC(CO)C(O)CO)c(I)c(C(=O)NC(CO)C(O)CO)c1I (centres unmarked) [iotrolan] | – | – | – | – | – | concentration at which apoptosis is induced [4]: 250 mg iodine per millilitre |
| tribromophenylisocyanate [TBPI] | – | does not result in a cell death | without an impairment of the vitality | only in the staining of the nucleus in few cells | did not result in any influence on the cell viability | cell death / vitality (annexin-V-Alexa 568, propidium iodide) ([2]; free compound co-incubated with conjugate 3 (260 μM), listed as TPBI): did not result in any considerable change; staining rate / number of stained cells ([3]; listed as TPBI): did not result in any considerable change |
| trichlorobenzoic acid [TCBA, reference compound] | – | – | did not result in any considerable change | did not result in any considerable change | did not result in any influence on the cell viability | cells strongly stained by FITC, FACS histogram [5]: no shift of the histogram peak to the right; cell death / vitality (annexin-V-Alexa 568, propidium iodide) ([2]; free compound co-incubated with conjugate 3 (260 μM), listed as trichlorobenzoic acid): remain vital; staining rate / number of stained cells ([3]; listed as trichlorobenzoic acid): only few cells stained in their nuclei; cells strongly stained by FITC, FACS histogram [3]: no shift of the histogram peak to the right |
| trifluorobenzoic acid [TFBA, reference compound] | – | – | remain vital; also recorded: did not result in any considerable change | few stained cells; also recorded: did not result in any considerable change | did not result in any influence on the cell viability | cells strongly stained by FITC, FACS histogram [5]: no shift of the histogram peak to the right; cells strongly stained by FITC, FACS histogram [3]: no shift of the histogram peak to the right |

Source: US20090203877A1, “X-RAY-DENSE CONJUGATE” (Eberhard-Karls-Universitaet Tuebingen Universitaetsklinkum, priority 2006, published 2009)
